How the values were obtained:
Assay type in all cases: physicochemical
[1] = Dielectric properties (e′, e″, loss tangent, Q value) by Slotted Line Method
Text: The property of permittivity is the measure of the resistance to forming an electric field. For purposes of comparing materials in air, it is often convenient to describe the permittivity of material in air where the permittivity is more specifically called “relative permittivity” or €r. This is a complex number represented by the following equation: […]
where e′ (the real portion of the complex number) is the dielectric constant (energy storage) and e″ (the imaginary portion of the complex number) is the dielectric loss or dissipation factor (energy dissipated as heat). The ratio of dielectric loss (e″) over the dielectric constant (e′) is called the loss tangent (tan δ) or power factor.
For purposes of this invention, the Q value is calculated for the frequency that the material is to be processed (e.g., 27 MHz). The Q value is affected by physical and chemical properties such as density (porosity/particle size), moisture (conductivity), temperature, and molecular polarizability. The measurements obtained by this method can eliminate the need to measure and evaluate these properties independently.
This process is referred to as the “Slotted Line Method.” Unless otherwise stated, the Slotted line method was used for the calculation of e′, e″, and Q value herein with the frequency range set to 26-28 MHz (31 points resolution) and values of e′ and e″ were recorded from the 27 MHz data point.

[2] = Loss on drying (moisture); conditions: Table 1b
Procedure: In one embodiment, the lossy coated particle contains water. In this embodiment, the lossy coated particle comprises at least 0.1 percent, by weight, water, such as at least 0.3 percent, by weight, water, such as at least 0.5 percent, by weight, water when measured using loss on drying at 105° C. until the weight of the lossy coated particles has stabilized. In one embodiment, the lossy coated particle retains water when measured by loss on drying prior to sintering, such as moisture content of at least 0.1 percent by weight, such as from about 0.1 to about 3 percent, such as from about 0.5 to about 2 percent, by weight.

[3] = Water activity; conditions: Table 1b
[4] = Table 1b, surface stabilizing agents, 27 MHz

Row | SMILES | e′ ([1]; Table 1a, dielectric constant, 27 MHz data point, Slotted Line Method) | e″ ([1]; Table 1a, dielectric loss, 27 MHz data point, Slotted Line Method) | Loss Tangent ([1]; Table 1a, e″/e′, 27 MHz) | e′ [1, 4] | e″ [1, 4] | Loss on Drying @ 105° C. [2] | Water Activity [3]
1 | OC[C@@H](O)[C@@H](O[C@H]1O[C@H](CO)[C@@H](O)[C@H](O)[C@H]1O)[C@H](O)[C@@H](O)CO [Maltitol (SweetPearl DC300), Maltitol] | 1.6214 | 0.0035 | 0.0022 | – | – | – | –
2 | OC[C@H]1O[C@H](O[C@H]2O[C@H](CO)[C@@H](O)[C@H](O)[C@H]2O)[C@H](O)[C@@H](O)[C@@H]1O [Trehalose] | – | – | – | 1.5185 | 0.0007 | 0.137 | 0.1935
3 | OC[C@@H](O)[C@H](O)[C@@H](O)CO [Xylitol (Xylitab ® 100), Xylitol] | – | – | – | 1.751 | 0.010 | 0.035 | 0.453
